5 compounds from the supplement of paper PMC10307832 can be followed below.

The first test concerns LCLC-97TM1. The test can be described thus: relative viability (nuclei count vs DMSO), 5 days (fraction); higher = more cells survive. As to conditions: first compound 0.08 µM. An outline of the steps:
(§1)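 Dosing by pin tool came one day after lung cancer cell lines were seeded in 1536-well plates, using either one drug or a fixed anchor-drug dose plus five library-drug doses (not always all listed) in √10 steps. After 5 days, nuclei were counted on 4× images. Relative viability is treated-well nuclei count divided by vehicle-well nuclei count, and values are medians of duplicate plates.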
The compound `CCCCCCCCCCCC1=C(O)C(=O)C=C(O)C1=O` [Embelin] + COc1cc2c(Oc3ccc(NC(=O)C4(C(=O)Nc5ccc(F)cc5)CC4)cc3F)ccnc2cc1OCCCN1CCOCC1 [Foretinib] (partner 0.25 µM) returned a relative viability of 0.988.
On the same count and under the same terms, then `CCCCCCCCCCCC1=C(O)C(=O)C=C(O)C1=O` [Embelin] + CC(=O)Nc1cccc(-n2c(=O)n(C3CC3)c(=O)c3c(Nc4ccc(I)cc4F)n(C)c(=O)c(C)c32)c1 [Trametinib] (partner 0.02 µM), with 0.201; and `CCCCCCCCCCCC1=C(O)C(=O)C=C(O)C1=O` [Embelin] + NC(=O)Nc1cc(-c2cccc(F)c2)sc1C(=O)N[C@H]1CCCNC1 [AZD7762] (partner 0.2 µM), with 0.223.

The test is the same for the next values; noted with them: first compound 0.8 µM.
As for `CCCCCCCCCCCC1=C(O)C(=O)C=C(O)C1=O` [Embelin] + COc1cc2c(Oc3ccc(NC(=O)C4(C(=O)Nc5ccc(F)cc5)CC4)cc3F)ccnc2cc1OCCCN1CCOCC1 [Foretinib] (partner 0.25 µM), the relative viability amounted to 0.943.
With `CCCCCCCCCCCC1=C(O)C(=O)C=C(O)C1=O` [Embelin] + CC(=O)Nc1cccc(-n2c(=O)n(C3CC3)c(=O)c3c(Nc4ccc(I)cc4F)n(C)c(=O)c(C)c32)c1 [Trametinib] (partner 0.02 µM), the relative viability was 0.18.
The same measure, in the same setting: then `CCCCCCCCCCCC1=C(O)C(=O)C=C(O)C1=O` [Embelin] + CS(=O)(=O)N1CCN(Cc2cc3nc(-c4cccc5[nH]ncc45)nc(N4CCOCC4)c3s2)CC1 [Pictilisib] (partner 1 µM), with 0.21; and `CCCCCCCCCCCC1=C(O)C(=O)C=C(O)C1=O` [Embelin] + NC(=O)Nc1cc(-c2cccc(F)c2)sc1C(=O)N[C@H]1CCCNC1 [AZD7762] (partner 0.2 µM), with 0.248; and `CCCCCCCCCCCC1=C(O)C(=O)C=C(O)C1=O` [Embelin] + Cc1nc(NC(=O)N2CCC[C@H]2C(N)=O)sc1-c1ccnc(C(C)(C)C(F)(F)F)c1 [Alpelisib] (partner 2 µM), with 0.291.

Staying with this test, now noted: first compound 2.53 µM.
Regarding `CCCCCCCCCCCC1=C(O)C(=O)C=C(O)C1=O` [Embelin] + COc1cc2c(Oc3ccc(NC(=O)C4(C(=O)Nc5ccc(F)cc5)CC4)cc3F)ccnc2cc1OCCCN1CCOCC1 [Foretinib] (partner 0.25 µM), the relative viability stood at 1.04.
On to `CCCCCCCCCCCC1=C(O)C(=O)C=C(O)C1=O` [Embelin] + CC(=O)Nc1cccc(-n2c(=O)n(C3CC3)c(=O)c3c(Nc4ccc(I)cc4F)n(C)c(=O)c(C)c32)c1 [Trametinib] (partner 0.02 µM), for which the relative viability stood at 0.232.
In turn, `CCCCCCCCCCCC1=C(O)C(=O)C=C(O)C1=O` [Embelin] + CS(=O)(=O)N1CCN(Cc2cc3nc(-c4cccc5[nH]ncc45)nc(N4CCOCC4)c3s2)CC1 [Pictilisib] (partner 1 µM) registered a relative viability of 0.184.
The same measure, in the same setting: then `CCCCCCCCCCCC1=C(O)C(=O)C=C(O)C1=O` [Embelin] + NC(=O)Nc1cc(-c2cccc(F)c2)sc1C(=O)N[C@H]1CCCNC1 [AZD7762] (partner 0.2 µM), with 0.205.
The same measure, in the same setting: in the case of `CCCCCCCCCCCC1=C(O)C(=O)C=C(O)C1=O` [Embelin] + Cc1nc(NC(=O)N2CCC[C@H]2C(N)=O)sc1-c1ccnc(C(C)(C)C(F)(F)F)c1 [Alpelisib] (partner 2 µM) it was 0.283.

Staying with this test, now noted: first compound 8 µM.
`CCCCCCCCCCCC1=C(O)C(=O)C=C(O)C1=O` [Embelin] + COc1cc2c(Oc3ccc(NC(=O)C4(C(=O)Nc5ccc(F)cc5)CC4)cc3F)ccnc2cc1OCCCN1CCOCC1 [Foretinib] (partner 0.25 µM) yielded a relative viability of 0.899.
On the same count and under the same terms, in the case of `CCCCCCCCCCCC1=C(O)C(=O)C=C(O)C1=O` [Embelin] + CC(=O)Nc1cccc(-n2c(=O)n(C3CC3)c(=O)c3c(Nc4ccc(I)cc4F)n(C)c(=O)c(C)c32)c1 [Trametinib] (partner 0.02 µM) it was 0.184; in that of `CCCCCCCCCCCC1=C(O)C(=O)C=C(O)C1=O` [Embelin] + CS(=O)(=O)N1CCN(Cc2cc3nc(-c4cccc5[nH]ncc45)nc(N4CCOCC4)c3s2)CC1 [Pictilisib] (partner 1 µM), 0.122; in that of `CCCCCCCCCCCC1=C(O)C(=O)C=C(O)C1=O` [Embelin] + NC(=O)Nc1cc(-c2cccc(F)c2)sc1C(=O)N[C@H]1CCCNC1 [AZD7762] (partner 0.2 µM), 0.268.
Same read-out and setting: in the case of `CCCCCCCCCCCC1=C(O)C(=O)C=C(O)C1=O` [Embelin] + Cc1nc(NC(=O)N2CCC[C@H]2C(N)=O)sc1-c1ccnc(C(C)(C)C(F)(F)F)c1 [Alpelisib] (partner 2 µM) it was 0.223.

For the next test, the system named is NCI-H2009. The test is described as above. As to conditions: first compound 0.08 µM. An outline of the steps:
as §1
Consider `CCCCCCCCCCCC1=C(O)C(=O)C=C(O)C1=O` [Embelin] + COc1cc2c(Oc3ccc(NC(=O)C4(C(=O)Nc5ccc(F)cc5)CC4)cc3F)ccnc2cc1OCCCN1CCOCC1 [Foretinib] (partner 0.25 µM), for which the relative viability turned out to be 1.24.
In turn, `CCCCCCCCCCCC1=C(O)C(=O)C=C(O)C1=O` [Embelin] + CC(=O)Nc1cccc(-n2c(=O)n(C3CC3)c(=O)c3c(Nc4ccc(I)cc4F)n(C)c(=O)c(C)c32)c1 [Trametinib] (partner 0.02 µM) displayed a relative viability of 0.335.
Compound `CCCCCCCCCCCC1=C(O)C(=O)C=C(O)C1=O` [Embelin] + CS(=O)(=O)N1CCN(Cc2cc3nc(-c4cccc5[nH]ncc45)nc(N4CCOCC4)c3s2)CC1 [Pictilisib] (partner 1 µM) displayed a relative viability of 0.947.
Same read-out and setting: in the case of `CCCCCCCCCCCC1=C(O)C(=O)C=C(O)C1=O` [Embelin] + Cc1nc(NC(=O)N2CCC[C@H]2C(N)=O)sc1-c1ccnc(C(C)(C)C(F)(F)F)c1 [Alpelisib] (partner 2 µM) it was 1.26.

The test is the same for the next values; noted with them: first compound 0.8 µM.
`CCCCCCCCCCCC1=C(O)C(=O)C=C(O)C1=O` [Embelin] + COc1cc2c(Oc3ccc(NC(=O)C4(C(=O)Nc5ccc(F)cc5)CC4)cc3F)ccnc2cc1OCCCN1CCOCC1 [Foretinib] (partner 0.25 µM) registered a relative viability of 1.33.
The same measure, in the same setting: then `CCCCCCCCCCCC1=C(O)C(=O)C=C(O)C1=O` [Embelin] + CC(=O)Nc1cccc(-n2c(=O)n(C3CC3)c(=O)c3c(Nc4ccc(I)cc4F)n(C)c(=O)c(C)c32)c1 [Trametinib] (partner 0.02 µM), with 0.306; and `CCCCCCCCCCCC1=C(O)C(=O)C=C(O)C1=O` [Embelin] + CS(=O)(=O)N1CCN(Cc2cc3nc(-c4cccc5[nH]ncc45)nc(N4CCOCC4)c3s2)CC1 [Pictilisib] (partner 1 µM), with 1.09.
On the same count and under the same terms, in the case of `CCCCCCCCCCCC1=C(O)C(=O)C=C(O)C1=O` [Embelin] + Cc1nc(NC(=O)N2CCC[C@H]2C(N)=O)sc1-c1ccnc(C(C)(C)C(F)(F)F)c1 [Alpelisib] (partner 2 µM) it was 1.27.

The test is the same for the next values; noted with them: first compound 2.53 µM.
In the case of `CCCCCCCCCCCC1=C(O)C(=O)C=C(O)C1=O` [Embelin] + COc1cc2c(Oc3ccc(NC(=O)C4(C(=O)Nc5ccc(F)cc5)CC4)cc3F)ccnc2cc1OCCCN1CCOCC1 [Foretinib] (partner 0.25 µM), the relative viability worked out at 1.24.
On to `CCCCCCCCCCCC1=C(O)C(=O)C=C(O)C1=O` [Embelin] + CC(=O)Nc1cccc(-n2c(=O)n(C3CC3)c(=O)c3c(Nc4ccc(I)cc4F)n(C)c(=O)c(C)c32)c1 [Trametinib] (partner 0.02 µM), for which the relative viability is 0.268.
